We go through 15 molecules from US20240116951A1, “HETEROCYCLIC COMPOUNDS AND USES THEREOF” (Kumquat Biosciences Inc., priority 2022, published 2024).

Format in all cases: binding
For experiment [1], the target named is T1, KRAS WT (Homo sapiens, UniProt P01116).
T1 construct: made in house; host or cells: E. coli, e.g. BL21 (DE3)
Put plainly: HTRF assay of wildtype K-Ras interaction with SOS1 (PPI-HTRF). The following applies: HTRF, 5 nM KRAS WT; read-out: PPI-HTRF-5 nM KRAS WT. The source says: (§1) This assay can be also used to assess a selective inhibition or reduction of signaling output of a mutant Ras protein relative to a wildtype, or relative to a different mutant Ras protein. For example, the equilibrium interaction of wildtype Kras or K-Ras mutant (e.g., wildtype or a mutant thereof including those mentioned in Example 4) with SOS1 (e.g., hSOS1) can be assessed as a proxy or an indication for a subject compound's ability to bind and inhibit Ras protein. HTRF assay detects from (i) a fluorescence resonance energy transfer (FRET) donor (e.g., antiGST-Europium) that is bound to GST-tagged K-Ras mutant to (ii) a FRET acceptor (e.g., anti-6His-XL665) bound to a His-tagged hSOS1.
(§2) The assay buffer can contain ˜5 mM HEPES pH 7.4, ˜150 mM NaCl, ˜1 mM DTT, 0.05% BSA and 0.0025% (v/v) Igepal. A Ras working solution is prepared in an assay buffer containing typically a suitable amount of the protein construct (e.g., GST-tagged K-Ras mutant) and the FRET donor (e.g., antiGST-Eu(K) from Cisbio, France). A SOS1 working solution is prepared in an assay buffer containing suitable amount of the protein construct (e.g., His-hSOS1) and the FRET acceptor (e.g., anti-6His-XL665 from Cisbio, France). A suitable amount of the protein construct will depend on the range of activity or range of IC50 values being detected or under investigation. For detecting IC50 within a range of 500 nM, the protein constructs of the same range of molarity can be utilized. […] A fixed volume of DMSO with or without test compound is transferred into a 384-well plate. Ras working solution is added to all wells of the test plate. SOS1 working solution is added to all wells except for those that are subsequently filled the inhibitor control solution. Upon incubation for about 10 minutes or longer, the fluorescence is measured with a M1000Pro plate reader (Tecan) using HTRF detection (excitation 337 nm, emission 1: 620 nm, emission 2: 665 nm). Compounds are tested in duplicates at different concentrations (for example, 10 μM, 2.5 μM, 0.63 μM, 0.16 μM, 0.04 μM, 0.01 μM test compound). The ratiometric data (i.e., emission 2 divided by emission 1) is used to calculate IC50 values against Ras using GraphPad Prism (GraphPad software). Following this general procedure, samples were tested with or without a subject compound disclosed herein including compounds exemplified in Table 1 to assess their abilities to inhibit a mutant K-Ras relative to another mutant K-Ras or wildtype K-Ras. Signaling output measured in terms of IC50 values can be obtained, a ratio of IC50 against one mutant relative to another mutant can be calculated. For instance, a selective reduction of K-Ras G12D signaling output can be evidenced by a ratio greater than one. In particular, a selective reduction of K-Ras G12D signaling relative to K-Ras WT signaling is evidenced as the ratio of IC50 (against K-Ras WT) to IC50 (against K-Ras G12D) is greater than 1.

In experiment [2] the target is T2, KRAS G12D (Homo sapiens, UniProt P01116, G12D).
T2 construct: made in house; host or cells: E. coli, e.g. BL21 (DE3)
Description: HTRF assay of K-Ras G12D interaction with SOS1 (PPI-HTRF). The following applies: HTRF, 5 nM KRAS G12D; read-out: PPI-HTRF-5 nM KRAS G12D.
Source text: as §1, §2
On the technique in general: TR-FRET usually uses a lanthanide donor and a delayed reading to cut background.

Experiment [3] deals with T3, KRAS G12S (Homo sapiens, UniProt P01116, G12S).
T3 construct: made in house; host or cells: E. coli, e.g. BL21 (DE3)
Description: HTRF assay of K-Ras G12S interaction with SOS1 (PPI-HTRF). The note with it: 5 nM KRAS G12S, read-out: PPI-HTRF-5 nM KRAS G12S.
Source text: as §1, §2

Where only a bound is given, the exact number is not on record here.

T2 sequence (P01116 1-188 isoform P01116-2 G12D): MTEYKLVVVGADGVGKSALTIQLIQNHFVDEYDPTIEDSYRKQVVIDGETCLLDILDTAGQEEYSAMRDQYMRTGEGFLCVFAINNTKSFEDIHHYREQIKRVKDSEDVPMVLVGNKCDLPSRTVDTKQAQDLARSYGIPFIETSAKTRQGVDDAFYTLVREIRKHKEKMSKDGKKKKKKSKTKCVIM
T3 sequence (P01116 1-188 isoform P01116-2 G12S): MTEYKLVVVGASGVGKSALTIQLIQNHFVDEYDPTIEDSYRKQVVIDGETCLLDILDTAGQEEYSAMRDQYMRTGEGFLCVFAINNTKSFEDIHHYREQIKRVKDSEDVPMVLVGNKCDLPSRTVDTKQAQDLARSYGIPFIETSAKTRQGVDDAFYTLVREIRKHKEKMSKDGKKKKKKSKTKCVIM
T1 sequence (P01116 1-188 isoform P01116-2): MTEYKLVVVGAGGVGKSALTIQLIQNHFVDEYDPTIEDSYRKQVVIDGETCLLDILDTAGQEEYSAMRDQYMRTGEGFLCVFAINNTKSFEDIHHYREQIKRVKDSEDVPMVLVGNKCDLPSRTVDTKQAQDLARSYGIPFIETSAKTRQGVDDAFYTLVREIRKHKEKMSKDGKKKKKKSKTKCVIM

As for `C[C@H]1CN[C@]12CCN(c1nc(OC[C@@]34CCCN3C[C@H](F)C4)nc3c(F)c(-c4ccc(F)c5sc(N)c(C#N)c45)c(Cl)cc13)C2` [Compound 334, 2-amino-4-(6-chloro-8-fluoro-2-(((2R,7aS)-2-fluorotetrahydro-1H-pyrrolizin-7a(5H)-yl)methoxy)-4-((3S,4R)-3-methyl-1,6-diazaspiro[3.4]octan-6-yl)quinazolin-7-yl)-7-fluorobenzo[b]thiophene-3-carbonitrile], the IC50 in experiment [1], in experiment [2] and in experiment [3] was less than 5 µM in each case. On to `N#Cc1c(N)sc2c(F)ccc(-c3c(Cl)cc4c(N5CCCC6(CCCN6)C5)nc(OC[C@@]56CCCN5C[C@H](F)C6)nc4c3F)c12` (stereo partly drawn) [Compound 252, 2-amino-4-(6-chloro-8-fluoro-2-(((2R,7aS)-2-fluorotetrahydro-1H-pyrrolizin-7a(5H)-yl)methoxy)-4-(1,7-diazaspiro[4.5]decan-7-yl)quinazolin-7-yl)-7-fluorobenzo[b]thiophene-3-carbonitrile], for which, in experiment [3], the IC50 was less than 5 µM. The same measure, in the same setting: next, `Nc1nc2c(-c3c(Cl)cc4c(N5CCCC6(CCN6)C5)nc(OC[C@@]56CCCN5C[C@H](F)C6)nc4c3F)ccc(F)c2s1` (stereo partly drawn) [Compound 209, 4-(6-chloro-8-fluoro-2-(((2R,7aS)-2-fluorotetrahydro-1H-pyrrolizin-7a(5H)-yl)methoxy)-4-(1,6-diazaspiro[3.5]nonan-6-yl)quinazolin-7-yl)-7-fluorobenzo[d]thiazol-2-amine]: less than 5 µM; `Cc1ncn(C(=O)N2CC[C@@]23CCN(c2nc(OC[C@@]45CCCN4C[C@H](F)C5)nc4c(F)c(-c5ccc(F)c6sc(N)c(C#N)c56)c(Cl)cc24)C3)n1` [Compound 339, 2-amino-4-(6-chloro-8-fluoro-2-(((2R,7aS)-2-fluorotetrahydro-1H-pyrrolizin-7a(5H)-yl)methoxy)-4-((R)-1-(3-methyl-1H-1,2,4-triazole-1-carbonyl)-1,6-diazaspiro[3.4]octan-6-yl)quinazolin-7-yl)-7-fluorobenzo[b]thiophene-3-carbonitrile]: less than 5 µM. With `Nc1nc2c(-c3c(Cl)cc4c(N5CC6(CNCCN6)C5)nc(OC[C@@]56CCCN5C[C@H](F)C6)nc4c3F)ccc(F)c2s1` [Compound 251, 4-(6-chloro-8-fluoro-2-(((2R,7aS)-2-fluorotetrahydro-1H-pyrrolizin-7a(5H)-yl)methoxy)-4-(2,5,8-triazaspiro[3.5]nonan-2-yl)quinazolin-7-yl)-7-fluorobenzo[d]thiazol-2-amine], the IC50 was less than 5 µM in experiment [2] and more than 5 µM in experiment [3]. As to `N#Cc1c(N)sc2c(F)ccc(-c3c(Cl)cc4c(N5CCCC6(CCN6)C5)nc(OC[C@@]56CCCN5C[C@H](F)C6)nc4c3F)c12` (stereo partly drawn) [Compound 260, 2-amino-4-(6-chloro-8-fluoro-2-(((2R,7aS)-2-fluorotetrahydro-1H-pyrrolizin-7a(5H)-yl)methoxy)-4-(1,6-diazaspiro[3.5]nonan-6-yl)quinazolin-7-yl)-7-fluorobenzo[b]thiophene-3-carbonitrile], the IC50 in experiment [3] is less than 5 µM. With `Nc1nc2c(-c3c(Cl)cc4c(N5CC6(CCCCN6)C5)nc(OCC56CCCN5C[C@H](F)C6)nc4c3F)ccc(F)c2s1` (stereo partly drawn) [Compound 220, 4-(6-chloro-8-fluoro-2-(((2R)-2-fluorotetrahydro-1H-pyrrolizin-7a(5H)-yl)methoxy)-4-(2,5-diazaspiro[3.5]nonan-2-yl)quinazolin-7-yl)-7-fluorobenzo[d]thiazol-2-amine], the IC50 in experiment [1] and in experiment [2] was less than 5 µM in each case. On to `N#CCC1CN(c2nc(OC[C@@]34CCCN3C[C@H](F)C4)nc3c(F)c(-c4ccc(F)c5sc(N)c(C#N)c45)c(Cl)cc23)CC12CCN2C(=O)n1cnc(C(F)F)n1` (stereo partly drawn) [Compound 330, (4R)-2-amino-4-(6-chloro-4-(8-(cyanomethyl)-1-(3-(difluoromethyl)-1H-1,2,4-triazole-1-carbonyl)-1,6-diazaspiro[3.4]octan-6-yl)-8-fluoro-2-(((2R,7aS)-2-fluorotetrahydro-1H-pyrrolizin-7a(5H)-yl)methoxy)quinazolin-7-yl)-7-fluorobenzo[b]thiophene-3-carbonitrile], for which the IC50 in experiment [3] was less than 5 µM.

Turning to `N#Cc1c(N)sc2c(F)ccc(-c3c(Cl)cc4c(N5CC6(CCN6C(=O)n6cncn6)CC5COC(F)F)nc(OC[C@@]56CCCN5C[C@H](F)C6)nc4c3F)c12` (stereo partly drawn) [Compound 348, 2-amino-4-(6-chloro-4-(7-((difluoromethoxy)methyl)-1-(1H-1,2,4-triazole-1-carbonyl)-1,6-diazaspiro[3.4]octan-6-yl)-8-fluoro-2-(((2R,7aS)-2-fluorotetrahydro-1H-pyrrolizin-7a(5H)-yl)methoxy)quinazolin-7-yl)-7-fluorobenzo[b]thiophene-3-carbonitrile], the IC50 in experiment [3] is less than 5 µM. The same measure, in the same setting: next, `N#Cc1c(N)sc2c(F)ccc(-c3c(Cl)cc4c(N5CC[C@@]6(CCN6C(=O)n6cncn6)C5)nc(OC[C@@]56CCCN5C[C@H](F)C6)nc4c3F)c12` (single isomer, unassigned) [Compound 247]: less than 5 µM; `N#Cc1c(N)sc2c(F)ccc(-c3c(Cl)cc4c(N5CCC6(CCN6C(=O)n6cncn6)C5)nc(OC[C@@]56CCCN5C[C@H](F)C6)nc4c3F)c12` (stereo partly drawn) [Compound 272, 4-(4-(1-(1H-1,2,4-triazole-1-carbonyl)-1,6-diazaspiro[3.4]octan-6-yl)-6-chloro-8-fluoro-2-(((2R,7aS)-2-fluorotetrahydro-1H-pyrrolizin-7a(5H)-yl)methoxy)quinazolin-7-yl)-2-amino-7-fluorobenzo[b]thiophene-3-carbonitrile]: less than 5 µM; `N#Cc1c(N)sc2c(F)ccc(-c3c(Cl)cc4c(N5CCCCC6(CCCN6C(=O)n6cncn6)C5)nc(OC[C@@]56CCCN5C[C@H](F)C6)nc4c3F)c12` (stereo partly drawn) [Compound 231, 4-(4-(1-(1H-1,2,4-triazole-1-carbonyl)-1,7-diazaspiro[4.6]undecan-7-yl)-6-chloro-8-fluoro-2-(((2R,7aS)-2-fluorotetrahydro-1H-pyrrolizin-7a(5H)-yl)methoxy)quinazolin-7-yl)-2-amino-7-fluorobenzo[b]thiophene-3-carbonitrile]: less than 5 µM. The same measure, in the same setting: next, `C[C@H](Oc1nc(N2CC[C@@]3(CCN3C(=O)n3cncn3)C2)c2cc(Cl)c(-c3ccc(F)c4sc(N)c(C#N)c34)c(F)c2n1)[C@@H]1CCCN1C` (single isomer, unassigned) [Compound 301]: less than 5 µM; `Cc1ncn(C(=O)N2CC[C@]23CCN(c2nc(OC[C@@]45CCCN4C[C@H](F)C5)nc4c(F)c(-c5ccc(F)c6sc(N)c(C#N)c56)c(Cl)cc24)C3)n1` [Compound 250, 2-amino-4-(6-chloro-8-fluoro-2-(((2R,7aS)-2-fluorotetrahydro-1H-pyrrolizin-7a(5H)-yl)methoxy)-4-((S)-1-(3-methyl-1H-1,2,4-triazole-1-carbonyl)-1,6-diazaspiro[3.4]octan-6-yl)quinazolin-7-yl)-7-fluorobenzo[b]thiophene-3-carbonitrile]: less than 5 µM. Same read-out and setting: to `N#Cc1c(N)sc2c(F)ccc(-c3c(Cl)cc4c(N5CCCC6(CCCN6C(=O)n6cncn6)C5)nc(OC[C@@]56CCCN5C[C@H](F)C6)nc4c3F)c12` (stereo partly drawn) [Compound 246, 4-(4-(1-(1H-1,2,4-triazole-1-carbonyl)-1,7-diazaspiro[4.5]decan-7-yl)-6-chloro-8-fluoro-2-(((2R,7aS)-2-fluorotetrahydro-1H-pyrrolizin-7a(5H)-yl)methoxy)quinazolin-7-yl)-2-amino-7-fluorobenzo[b]thiophene-3-carbonitrile] belongs less than 5 µM.
